We go through 2 compounds from patent US20240190883A1, “KRAS PROTEIN DEGRADERS, PHARMACEUTICAL COMPOSITIONS THEREOF, AND THEIR THERAPEUTIC APPLICATIONS” (BioTheryX, Inc., priority 2021, published 2024).

Common to all, as to format: cell-based
Assay [1] concerns the target T1, KRAS protein (Homo sapiens, UniProt P01116).
T1 construct: engineered to express a Hobbit-tagged endogenous KRAS protein; endogenous in cells; host or cells: HEK293, endogenous KRAS locus engineered with a HiBiT tag
As to the kind of experiment: HIBIT degradation assay, HEK293 cells. The settings on record: 24 h, HiBiT signal normalized to CTG signal. Here is the method: (§1) HEK293, MIA PaCa-2, AsPc-1, SW620, and H647 cells were engineered to express a […] endogenous KRAS protein. The HEK293 and MIA PaCa-2 cells were cultured in DMEM media supplemented with 10% fetal bovine serum, streptomycin, and penicillin. The AsPc-1, SW620, and H647 were cultured in RPMI media supplemented with 10% fetal bovine serum, streptomycin, and penicillin. The cells were seeded in white walled 96-well plates at 20,000 cells/well in 100 μL culture media in duplicate plates. After incubated at 37° C. under 5% CO2 overnight, the cells were treated with DMSO (control) or a compound, followed by the addition of 100 μL culture media to each well. After the cells were incubated for 24 h at 37° C. under 5% C02, 150 μL media were removed from each well and 50 μL NANOGLO-LGBIT lytic reagent were added to each well, and 50 μL CELLTITER-GLO (CTG) reagent was added to the duplicate plate. Following a 10-minute incubation with shaking, luminescence was measured using a Perkin Elmer ENVISION multimode plate reader. HiBiT signal was normalized to CTG signal. The results are summarized in Table 3, where “A” represents a percentage degradation value of no less than 50%; “B” represents a percentage degradation value of less than 50% and no less than 25%; “C” represents a percentage degradation value of less than 25% and no less than 10%; and “D” represents a percentage degradation value of less than 10%.

Assay [2] concerns the target T2, KRAS protein (Homo sapiens, UniProt P01116, G12D).
T2 construct: engineered to express a Hobbit-tagged endogenous KRAS protein; endogenous in cells; host or cells: AsPC-1, endogenous KRAS locus engineered with a HiBiT tag
As to the kind of experiment: HIBIT degradation assay, AsPC-1 cells. Particulars: 24 h, HiBiT signal normalized to CTG signal; for Effect on KRAS Protein Degradation, AsPC-1, 3 μM: compound at 3 μM; for Effect on KRAS Protein Degradation, AsPC-1, 5 μM: compound at 5 μM. Here is the method: as §1
In general terms: With HiBiT, luminescence reflects the tagged protein that the partner subunit can reach.

The target in assay [3] is T3, KRAS protein (Homo sapiens, UniProt P01116, G12C).
T3 construct: engineered to express a Hobbit-tagged endogenous KRAS protein; endogenous in cells; host or cells: MIA PaCa-2, endogenous KRAS locus engineered with a HiBiT tag
The assay can be described thus: HIBIT degradation assay, MIA PaCa-2 cells. The settings on record: 24 h, HiBiT signal normalized to CTG signal; for Effect on KRAS Protein Degradation, MIA PaCa-2, 3 μM: compound at 3 μM; for Effect on KRAS Protein Degradation, MIA PaCa-2, 5 μM: compound at 5 μM. How it is done: as §1

The subject of a further assay is Molm-13 cells. The assay can be described thus: Cell viability assay, inhibition of Molm-13 cells. Particulars: Homo sapiens. Here is the method:
[Worded in the source for another cell line; this cell line is reported under the same test.] H358, H23, SW48, and AsPC-1 cells were cultured in RPMI 1640 media supplemented with 10% fetal bovine serum, streptomycin, and penicillin. Lovo and SW480 cells were cultured in DMEM media supplemented with 10% fetal bovine serum, streptomycin, and penicillin. The cell lines were plated in their respective medium supplemented with 2.5% fetal bovine serum, streptomycin, and penicillin. All cell lines were plated in white walled 96-well plates at 2,000 cells/well or 384-well plates at 500 cells/well, except Lovo, which were plated at 4,000 or 1,000 cells/well, respectively. The cells were incubated in DMSO (control) or a compound for 3 days at 37° C. under 5% C02. A CELLTITER-GLO® reagent (100 μL) was then added to each well. After a 10 min incubation with shaking, luminescence was measured using an ENVISION® multimode plate reader. IC50 values are summarized in Table 1 and percentages of inhibition are summarized in Table 2, where compound T1 is 2-(4-(2-methyl-3,5-diphenylpyrazolo[1,5-a]pyrimidin-7-yl)piperazin-1-yl)ethan-1-ol.

SMILES strings stand for the structures.

T3 sequence (P01116 whole entry G12C): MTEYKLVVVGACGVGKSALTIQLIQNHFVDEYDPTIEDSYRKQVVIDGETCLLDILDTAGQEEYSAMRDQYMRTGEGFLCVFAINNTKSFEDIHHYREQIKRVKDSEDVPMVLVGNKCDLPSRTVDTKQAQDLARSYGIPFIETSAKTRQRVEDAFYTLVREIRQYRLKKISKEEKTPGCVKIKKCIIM
T2 sequence (P01116 1-188 isoform P01116-2 G12D): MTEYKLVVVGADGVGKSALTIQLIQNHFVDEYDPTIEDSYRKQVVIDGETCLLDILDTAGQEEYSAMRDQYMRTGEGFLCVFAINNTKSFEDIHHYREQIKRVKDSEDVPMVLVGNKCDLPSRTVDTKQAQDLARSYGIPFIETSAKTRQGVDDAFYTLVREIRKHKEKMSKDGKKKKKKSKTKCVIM
T1 sequence (P01116 1-188 isoform P01116-2): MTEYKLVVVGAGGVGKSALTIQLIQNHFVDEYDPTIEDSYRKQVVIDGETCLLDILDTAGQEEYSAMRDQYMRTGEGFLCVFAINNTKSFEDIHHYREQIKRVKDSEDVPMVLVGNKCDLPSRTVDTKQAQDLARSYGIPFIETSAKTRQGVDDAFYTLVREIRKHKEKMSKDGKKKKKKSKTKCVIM

Regarding `Cc1nn2c(N3CCN(CCO)CC3)cc(-c3ccc(F)cc3)nc2c1-c1cccc(CCCCCN2CCN(C(=O)CNc3ccc4c(C5CCC(=O)NC5=O)nn(C)c4c3)CC2)c1` (stereo not drawn) [Compound D19, 3-(6-((2-(4-(5-(3-(5-(4-Fluorophenyl)-7-(4-(2-hydroxyethyl)piperazin-1-yl)-2-methylpyrazolo[1,5-a]pyrimidin-3-yl)phenyl)pentyl)piperazin-1-yl)-2-oxoethyl)amino)-1-methyl-1H-indazol-3-yl)piperidine-2,6-dione], the “Effect on KRAS Protein Degradation, HEK293, 3 μM” value on KRAS protein [1] (compound at 3 μM) is “D (a percentage degradation value of less than 10%)”. At KRAS protein [1] (compound at 5 μM), the “Effect on KRAS Protein Degradation, HEK293, 5 μM” value was “D (a percentage degradation value of less than 10%)”. Besides, on KRAS protein [2], the “Effect on KRAS Protein Degradation, AsPC-1, 3 μM” value was “C (a percentage degradation value of less than 25% and no less than 10%)”; the “Effect on KRAS Protein Degradation, AsPC-1, 5 μM” value was “C (a percentage degradation value of less than 25% and no less than 10%)”. Also, on KRAS protein [3], the “Effect on KRAS Protein Degradation, MIA PaCa-2, 3 μM” value was “D (a percentage degradation value of less than 10%)”; the “Effect on KRAS Protein Degradation, MIA PaCa-2, 5 μM” value was “C (a percentage degradation value of less than 25% and no less than 10%)”.

By inhibition is commonly meant how much of the control response was suppressed. Low readings indicate a weak effect, high ones a strong effect. Regarding `Cc1nn2c(N3CCN(CCO)CC3)cc(-c3ccccc3)nc2c1-c1cccc(CCCN2CCN(C(=O)COc3cccc4c(C5CCC(=O)NC5=O)nn(C)c34)CC2)c1` (stereo not drawn) [Compound D20, 3-(7-(2-(4-(3-(3-(7-(4-(2-Hydroxyethyl)piperazin-1-yl)-2-methyl-5-phenyl-pyrazolo[1,5-a]pyrimidin-3-yl)phenyl)propyl)piperazin-1-yl)-2-oxoethoxy)-1-methyl-1H-indazol-3-yl)piperidine-2,6-dione], at KRAS protein [2], the “Effect on KRAS Protein Degradation, AsPC-1, 3 μM” value was “D (a percentage degradation value of less than 10%)”; the “Effect on KRAS Protein Degradation, AsPC-1, 5 μM” value was “C (a percentage degradation value of less than 25% and no less than 10%)”. The compound further had an inhibition at 1 µM in the assay with Molm-13 cells (compound at 1 μM) of 0%. In the assay on Molm-13 cells (compound at 3 μM), this compound returned an inhibition at 3 µM of 71%. Moreover, on KRAS protein [3], the “Effect on KRAS Protein Degradation, MIA PaCa-2, 3 μM” value is “C (a percentage degradation value of less than 25% and no less than 10%)”; the “Effect on KRAS Protein Degradation, MIA PaCa-2, 5 μM” value is “C (a percentage degradation value of less than 25% and no less than 10%)”.
